From PubChem BioAssay AID330 (DTP/NCI, 2004)
“And” between values parts separate entries of the source, which are not always exact repeats. Equal entries are not always repeated. Inconclusive results and toxic doses are left out. Peptide text beside a SMILES is read from it. * marks the point of attachment. Cbz = O=C(OCc1ccccc1)*

System: P388 leukemia ip, CD2F1 mice, survival T/C
Assay: NCI In Vivo Anticancer Drug Screen. Data for tumor model P388 Leukemia (intraperitoneal) in CD2F1 (CDF1) mice
Settings: endpoint: median survival time, higher = longer survival
How it was run: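 Mice carrying the transplanted tumor received test compound or vehicle. Survival was recorded in each group, and the value is the treated-group measurement divided by that of the vehicle-treated control group.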

[1] = dose: 60.0 mg/kg/injection, schedule: Q01DX005 (ip), vehicle: Klucel (hydroxypropylcellulose) (HPC)
[2] = dose: 120.0 mg/kg/injection, schedule: Q01DX005 (ip), vehicle: Klucel (hydroxypropylcellulose) (HPC)
[3] = dose: 50.0 mg/kg/injection, schedule: Q01DX005 (ip), vehicle: Klucel (hydroxypropylcellulose) (HPC)
[4] = dose: 100.0 mg/kg/injection, schedule: Q01DX005 (ip), vehicle: Klucel (hydroxypropylcellulose) (HPC)
[5] = dose: 200.0 mg/kg/injection, schedule: Q01DX005 (ip), vehicle: Klucel (hydroxypropylcellulose) (HPC)
[6] = dose: 50.0 mg/kg/injection, schedule: Q01DX005 (ip), vehicle: saline with Tween-80
[7] = dose: 100.0 mg/kg/injection, schedule: Q01DX005 (ip), vehicle: saline with Tween-80
[8] = dose: 200.0 mg/kg/injection, schedule: Q01DX005 (ip), vehicle: saline with Tween-80
[9] = dose: 50.0 mg/kg/injection, schedule: Q01DX009 (ip), vehicle: Klucel (hydroxypropylcellulose) (HPC)
[10] = dose: 100.0 mg/kg/injection, schedule: Q01DX009 (ip), vehicle: Klucel (hydroxypropylcellulose) (HPC)
[11] = dose: 200.0 mg/kg/injection, schedule: Q01DX009 (ip), vehicle: Klucel (hydroxypropylcellulose) (HPC)
[12] = dose: 100.0 mg/kg/injection, schedule: Q04DX003 (ip), vehicle: saline with Tween-80
[13] = dose: 200.0 mg/kg/injection, schedule: Q04DX003 (ip), vehicle: saline with Tween-80
[14] = dose: 400.0 mg/kg/injection, schedule: Q04DX003 (ip), vehicle: saline with Tween-80
[15] = dose: 50.0 mg/kg/injection, schedule: Q01DX009 (ip), vehicle: saline
[16] = dose: 100.0 mg/kg/injection, schedule: Q01DX009 (ip), vehicle: saline
[17] = dose: 12.5 mg/kg/injection, schedule: Q01DX009 (ip), vehicle: saline
[18] = dose: 25.0 mg/kg/injection, schedule: Q01DX009 (ip), vehicle: saline

CCOC1=C(C#N)C(=O)NC2OC(CO)C(O)C2O1 (stereo unspecified)
T/C [1]: 104 % of control
T/C [2]: 104 % of control
T/C (dose: 240.0 mg/kg/injection, schedule: Q01DX005 (ip), vehicle: Klucel (hydroxypropylcellulose) (HPC)): 106 % of control

COc1c2c(cc3c1C(O)=CC(=O)C3=O)OCO2
T/C [3]: 104 % of control
T/C [4]: 100 % of control
T/C [5]: 107 % of control

CN(CC(=O)O)C(=S)c1ccccc1
T/C (dose: 100.0 mg/kg/injection, schedule: Q01DX001 (ip), vehicle: saline with Tween-80): 95 % of control
T/C (dose: 200.0 mg/kg/injection, schedule: Q01DX001 (ip), vehicle: saline with Tween-80): 95 % of control
T/C (dose: 400.0 mg/kg/injection, schedule: Q01DX001 (ip), vehicle: saline with Tween-80): 95 % of control

O=C(O)C1C2c3ccccc3C(c3ccccc32)C1C(=O)NCC1CC1 (stereo unspecified)
T/C [1]: 109 % of control
T/C [2]: 110 % of control

O=C(CNC(=O)n1ccnc1)N/N=C/c1ccco1
T/C [6]: 95 % of control
T/C [7]: 92 % of control
T/C [8]: 89 % of control

Cc1cc2c(c3c1C(=O)CC3)C(C)(C)CCC2(C)C
T/C [6]: 99 % of control
T/C [7]: 97 % of control
T/C [8]: 95 % of control

CCN(c1ccccc1C(=O)O)S(=O)(=O)c1ccc(C)cc1
T/C [3]: 104 % of control
T/C [4]: 106 % of control

CCOC(=O)C1=C(C)OC(C)(OC(C)=O)C1=O (stereo unspecified)
T/C (dose: 50.0 mg/kg/injection, schedule: Q01DX005 (ip), vehicle: saline): 90 % of control
T/C (dose: 100.0 mg/kg/injection, schedule: Q01DX005 (ip), vehicle: saline): 103 % of control
T/C (dose: 200.0 mg/kg/injection, schedule: Q01DX005 (ip), vehicle: saline): 105 % of control

NC(=O)C1CCCN1C(=O)C(Cc1ccc(O)cc1)NC(=O)OCc1ccccc1 (stereo not drawn) (Cbz-Tyr-Pro-NH2; configuration not given here)
T/C [6]: 104 % of control
T/C [7]: 97 % of control
T/C [8]: 94 % of control

c1ccc(C(NC2CC3CCC2C3)c2ccccc2)cc1 (stereo unspecified)
T/C (dose: 37.5 mg/kg/injection, schedule: Q01DX009 (ip), vehicle: saline with Tween-80): 100 % of control
T/C (dose: 75.0 mg/kg/injection, schedule: Q01DX009 (ip), vehicle: saline with Tween-80): 95 % of control

N#CSc1ccc2nc(NCO)sc2c1
T/C [9]: 104 % of control
T/C [10]: 101 % of control

c1ccc(-c2nc(-c3ccc4c(c3)OCO4)[nH]c2-c2ccccc2)cc1
T/C [9]: 97 % of control
T/C [10]: 114 % of control
T/C [11]: 112 % of control

O=c1cc(-c2ccccc2)c2ccc(O)c(CN(CCO)CCO)c2o1
T/C (dose: 100.0 mg/kg/injection, schedule: Q04DX002 (ip), vehicle: saline with Tween-80): 89 % of control
T/C (dose: 200.0 mg/kg/injection, schedule: Q04DX002 (ip), vehicle: saline with Tween-80): 89 % of control

C[CH2][Pb]([CH2]C)([CH2]C)[O]C(=O)CBr
T/C (dose: 2.0 mg/kg/injection, schedule: Q01DX009 (ip), vehicle: saline): 111 % of control
T/C (dose: 3.0 mg/kg/injection, schedule: Q01DX009 (ip), vehicle: saline): 117 % of control
T/C (dose: 4.5 mg/kg/injection, schedule: Q01DX009 (ip), vehicle: saline): 119 % of control

COc1cc(C2c3cc4c(cc3OC(C)(OC)C2C(C)=O)OCO4)cc(OC)c1OC (stereo unspecified)
T/C (dose: 60.0 mg/kg/injection, schedule: Q01DX005 (ip), vehicle: saline with Tween-80): 90 % of control
T/C (dose: 120.0 mg/kg/injection, schedule: Q01DX005 (ip), vehicle: saline with Tween-80): 94 % of control
T/C (dose: 240.0 mg/kg/injection, schedule: Q01DX005 (ip), vehicle: saline with Tween-80): 95 % of control

O=C(/C=C/c1ccc2c(c1)OCO2)c1ccccc(=O)c1O
T/C (dose: 25.0 mg/kg/injection, schedule: Q01DX005 (ip), vehicle: Klucel (hydroxypropylcellulose) (HPC)): 95 % of control
T/C [3]: 100 % of control
T/C [4]: 101 % of control
T/C [5]: 118 % of control

CCN(CCN1C(=O)COCC1=O)c1ccccc1
T/C [12]: 105 % of control
T/C [13]: 104 % of control
T/C [14]: 96 % of control

COC1=C(O)C(=O)N(C)C(=O)C1
T/C (dose: 0.93 mg/kg/injection, schedule: Q01DX005 (ip), vehicle: saline): 104 % of control
T/C (dose: 1.87 mg/kg/injection, schedule: Q01DX005 (ip), vehicle: saline): 101 % of control
T/C (dose: 3.75 mg/kg/injection, schedule: Q01DX005 (ip), vehicle: Klucel (hydroxypropylcellulose) (HPC)): 110 % of control
T/C (dose: 3.75 mg/kg/injection, schedule: Q01DX005 (ip), vehicle: saline): 104 % of control

CC(=O)OC1OC(C(OC(C)=O)C(Cl)Cl)OC1C(Cl)Cl (stereo unspecified)
T/C (dose: 50.0 mg/kg/injection, schedule: Q01DX009 (ip), vehicle: saline with Tween-80): 97 % of control
T/C (dose: 100.0 mg/kg/injection, schedule: Q01DX009 (ip), vehicle: saline with Tween-80): 105 % of control
T/C (dose: 200.0 mg/kg/injection, schedule: Q01DX009 (ip), vehicle: saline with Tween-80): 112 % of control

C[Si]1(C)O[Si](C)(C)N(N)P(=S)(Oc2ccccc2)N1N
T/C (dose: 12.5 mg/kg/injection, schedule: Q01DX005 (ip), vehicle: saline with Tween-80): 101 % of control
T/C (dose: 25.0 mg/kg/injection, schedule: Q01DX005 (ip), vehicle: saline with Tween-80): 108 % of control
T/C [6]: 104 % of control and 111 % of control

Cc1ncc(Cl)c2cc3ccccc3cc12
T/C [15]: 101 % of control and 89 % of control
T/C [16]: 99 % of control
T/C (dose: 200.0 mg/kg/injection, schedule: Q01DX009 (ip), vehicle: saline): 99 % of control and 94 % of control

ONc1ncnc2nc[nH]c12
T/C (dose: 50.0 mg/kg/injection, schedule: Q04DX003 (ip), vehicle: saline with Tween-80): 122 % of control
T/C (dose: 200.0 mg/kg/injection, schedule: Q04DX003 (ip), vehicle: saline sonified): 120 % of control

O=c1oc(-c2ccccc2)cc2ccccc12
T/C [3]: 100 % of control and 105 % of control
T/C [4]: 99 % of control and 109 % of control
T/C [5]: 99 % of control and 98 % of control
T/C (dose: 400.0 mg/kg/injection, schedule: Q01DX005 (ip), vehicle: Klucel (hydroxypropylcellulose) (HPC)): 100 % of control and 93 % of control

O=C(NCCCl)Oc1ccc(F)cc1
T/C [3]: 100 % of control
T/C [4]: 100 % of control
T/C [5]: 110 % of control

CCCCCC(CN(C)C)C(=O)/C=C/c1ccccc1 (stereo unspecified)
T/C [17]: 102 % of control
T/C [18]: 94 % of control
T/C [15]: 104 % of control
T/C [16]: 105 % of control

COc1cc2ccc(CC(=O)NCCc3ccc4c(c3)OCO4)cc2cc1OC
T/C [10]: 100 % of control
T/C [11]: 100 % of control
T/C (dose: 400.0 mg/kg/injection, schedule: Q01DX009 (ip), vehicle: Klucel (hydroxypropylcellulose) (HPC)): 90 % of control

CN1CCN(CC(=O)c2c(-c3ccccc3)[nH]c3ccccc23)CC1
T/C (dose: 100.0 mg/kg/injection, schedule: Q04DX003 (ip), vehicle: saline): 101 % of control
T/C (dose: 200.0 mg/kg/injection, schedule: Q04DX003 (ip), vehicle: saline): 105 % of control
T/C (dose: 400.0 mg/kg/injection, schedule: Q04DX003 (ip), vehicle: saline): 97 % of control

CCCCCCCCCCCCC(=O)N1CCOCC1
T/C [12]: 100 % of control
T/C [13]: 95 % of control
T/C [14]: 110 % of control

COC(OC)C(C)N1CCCCC1 (stereo unspecified)
T/C [17]: 104 % of control
T/C [18]: 97 % of control
T/C [15]: 99 % of control and 96 % of control

CC1C(c2ccccc2)OC(N2CCOCC2)C(C)(C)CN1C (stereo unspecified)
T/C [6]: 108 % of control and 93 % of control
T/C [7]: 98 % of control and 101 % of control and 116 % of control
T/C [8]: 101 % of control and 119 % of control and 121 % of control
T/C (dose: 400.0 mg/kg/injection, schedule: Q01DX005 (ip), vehicle: saline with Tween-80): 101 % of control

CCC1(C)N=C(N)Nc2nc3cc(C)c(C)cc3n21 (stereo unspecified)
T/C [17]: 92 % of control
T/C [18]: 91 % of control
T/C [15]: 92 % of control and 94 % of control

N=C(N)c1ccc(OCCCCOc2ccc(N)cc2)cc1
T/C [1]: 97 % of control
T/C [2]: 101 % of control

CCCCCC(CN(C)C)C(/C=C/c1ccc(Cl)c(Cl)c1)=N\O (stereo unspecified)
T/C [15]: 116 % of control
T/C [16]: 105 % of control
